The target of data set [1] is T1, native bovine brain inositol monophosphatase (Bos taurus, UniProt P20456).
T1 construct: both the native and recombinant bovine enzymes; from tissue; host or cells: bovine brain
T1 sequence (P20456 1-277): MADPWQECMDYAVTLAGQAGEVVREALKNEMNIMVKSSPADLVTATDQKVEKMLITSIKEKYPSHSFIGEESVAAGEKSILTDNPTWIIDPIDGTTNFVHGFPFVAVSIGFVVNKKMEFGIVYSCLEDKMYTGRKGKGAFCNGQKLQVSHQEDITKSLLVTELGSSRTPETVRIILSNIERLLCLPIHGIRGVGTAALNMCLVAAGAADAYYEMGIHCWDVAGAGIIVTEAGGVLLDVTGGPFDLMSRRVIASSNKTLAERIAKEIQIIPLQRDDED
Conditions: bovine brain enzyme, as reported in Gee et al., but confirmed here, cited from earlier work.

Data set [2] deals with T2, recombinant human brain inositol monophosphatase (IMP), SEQ. ID NO. 2, expressed in E. coli BL21-DE3 (Homo sapiens, UniProt P29218).
T2 sequence (P29218 1-277): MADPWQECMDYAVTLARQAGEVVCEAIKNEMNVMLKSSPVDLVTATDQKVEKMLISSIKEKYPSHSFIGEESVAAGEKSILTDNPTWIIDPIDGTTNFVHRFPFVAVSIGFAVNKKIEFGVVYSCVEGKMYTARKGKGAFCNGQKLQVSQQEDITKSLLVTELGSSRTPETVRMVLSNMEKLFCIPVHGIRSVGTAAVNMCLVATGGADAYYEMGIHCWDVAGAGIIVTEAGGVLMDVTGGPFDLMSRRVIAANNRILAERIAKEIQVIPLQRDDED
As to the kind of experiment: Kinetics and inhibition of recombinant human inositol monophosphatase ([14C]inositol release from DL-Ins(1)P).

For data set [3], the target named is T3, bovine inositol monophosphatase (bovine enzyme, source not specified) (Bos taurus, UniProt P20456).
T3 sequence (P20456 1-277): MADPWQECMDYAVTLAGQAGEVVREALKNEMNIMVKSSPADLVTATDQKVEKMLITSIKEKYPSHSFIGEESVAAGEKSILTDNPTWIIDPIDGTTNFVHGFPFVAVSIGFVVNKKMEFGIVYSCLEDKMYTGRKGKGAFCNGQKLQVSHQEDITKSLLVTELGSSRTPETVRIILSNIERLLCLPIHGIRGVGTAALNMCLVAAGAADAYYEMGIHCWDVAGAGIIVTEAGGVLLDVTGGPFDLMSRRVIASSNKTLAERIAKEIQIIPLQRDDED
Description: Inhibition of bovine inositol monophosphatase (parallel comparison). It counts as biochemical. Conditions: parallel experiment.

Substrate in data set [4]: O=P(O)(O)O[C@@H]1[C@H](O)[C@H](O)[C@@H](O)[C@H](O)[C@H]1O
As to the kind of experiment: purified protein, by the assay type. Conditions: mean ± S.E.M. (n=3).

Like-named read-outs stand apart in the source and are kept apart here.

As for `O=P(O)(O)O[C@@H]1[C@H](O)[C@H](O)[C@@H](O)[C@H](O)[C@H]1O` (relative stereo) [DL-Ins(1)P], in data set [1] (substrate DL-Ins(1)P), the Vmax is 13.3 ± 0.9 μmol/min per mg of protein. Besides, the Km – broadly, the concentration of substrate that gives half-maximal velocity – in data set [1] (read-out: Km for DL-Ins(1)P) is 160 ± 20 µM.

On to `O=P(O)(O)O[C@H]1CC[C@H](O)C[C@H]1O` [1S-phosphoryloxy-2R,4S-dihydroxycyclohexane], for which the Ki came out at 2.7 µM in data set [2] and 1.1 µM in data set [3] (competitive inhibitor, read-out: apparent Ki).

Turning to `O=P(O)(O)O` [Pi], the Ki in data set [2] (read-out: Ki (Pi), competitive inhibition, recombinant human IMP) is 140 µM; in data set [3] (read-out: Ki (Pi)), 500 µM.

B1: recombinant human brain inositol monophosphatase (IMP), SEQ. ID NO. 2, expressed in E. coli BL21-DE3 (Homo sapiens) (protein)
chain: MADPWQECMDYAVTLARQAGEVVCEAIKNEMNVMLKSSPVDLVTATDQKVEKMLISSIKEKYPSHSFIGEESVAAGEKSILTDNPTWIIDPIDGTTNFVHRFPFVAVSIGFAVNKKIEFGVVYSCVEGKMYTARKGKGAFCNGQKLQVSQQEDITKSLLVTELGSSRTPETVRMVLSNMEKLFCIPVHGIRSVGTAAVNMCLVATGGADAYYEMGIHCWDVAGAGIIVTEAGGVLMDVTGGPFDLMSRRVIAANNRILAERIAKEIQVIPLQRDDED
In the case of B1, in data set [4] (other: human recombinant enzyme, 37° C.), the Km came out at 75 ± 3 µM.

B2: native human platelet-derived inositol monophosphatase (Homo sapiens) (protein)
chain: MADPWQECMDYAVTLARQAGEVVCEAIKNEMNVMLKSSPVDLVTATDQKVEKMLISSIKEKYPSHSFIGEESVAAGEKSILTDNPTWIIDPIDGTTNFVHRFPFVAVSIGFAVNKKIEFGVVYSCVEGKMYTARKGKGAFCNGQKLQVSQQEDITKSLLVTELGSSRTPETVRMVLSNMEKLFCIPVHGIRSVGTAAVNMCLVATGGADAYYEMGIHCWDVAGAGIIVTEAGGVLMDVTGGPFDLMSRRVIAANNRILAERIAKEIQVIPLQRDDED
B2: in data set [4] (other: human platelet enzyme, 37.0 °C), the Km was 108 ± 3 µM.

B3: recombinant bovine inositol monophosphatase (Bos taurus) (protein)
chain: MADPWQECMDYAVTLAGQAGEVVREALKNEMNIMVKSSPADLVTATDQKVEKMLITSIKEKYPSHSFIGEESVAAGEKSILTDNPTWIIDPIDGTTNFVHGFPFVAVSIGFVVNKKMEFGIVYSCLEDKMYTGRKGKGAFCNGQKLQVSHQEDITKSLLVTELGSSRTPETVRIILSNIERLLCLPIHGIRGVGTAALNMCLVAAGAADAYYEMGIHCWDVAGAGIIVTEAGGVLLDVTGGPFDLMSRRVIASSNKTLAERIAKEIQIIPLQRDDED
Turning to B3, in data set [4] (other: bovine recombinant enzyme, 37.0 °C), the Km was found to be 120 ± 7 µM.
